Converted amounts (≈) assume the structure as drawn. Like-named read-outs stand apart in the source and are kept apart here. Values belong to the molecule of their own block, whether it stands above or below them. Square brackets hold non-standard residues; d marks the D form. Peptide text beside a SMILES is read from it. Ahx = NCCCCCC(=O)O; βAla = NCCC(=O)O
How the values were obtained:
Enterobacter = type: cell-based
Experimental: The IC50 is determined by an essay, suitable for the specific film-forming microorganism in question. For example, in the present invention, the Enterobacter assay, which is described in detail in the methods section below, was used to determine the antimicrobial activities of the tested peptides.
Quantitative Biofilm Growth Inhibition Assay in a 96-Wells Microtiter Plate:
Enterobacter culture (50 ml) was grown in tryptic soy broth media (TBS; prepared according to manufacturer instructions) overnight at 25° C. On the next day the turbidity of the culture was measured at 600 nm (Biomate 5 UV-Vis spectrophotometer, Thermo Fisher Scientific, Waltham, Mass.) and, if necessary, TSB was added to dilute the culture until the OD was 1.
Then 96 wells polystyrene microtiter plates (flat bottom, transparent, Becton Dickinson, Franklin Lakes, New-Jersey) were filled as following: Negative control wells (without bacteria) were filled with 125 μl TSB media and 25 μl of DDW:PBS1:1 buffer solution; Positive control wells (without peptide solution) were filled with 110 μl TSB media, 25 μl of DDW:PBS1:1 buffer solution and 15 μl of Enterobacter culture solution; Wells that contained AMPs at different concentrations were filled with 110 μl TSB media, 25 μl of peptide solution and 15 μl of Enterobacter culture solution.
The plates were incubated at 25° C. overnight. On the next day the plates were gently rinsed 5 times with distilled water to remove the planktonic bacteria and then dried at room temperature for 10 minutes. Then the biofilm on the walls of the wells was dyed by adding 200 μl, of 3% crystal violet (CV) to the wells. After 15 minutes at room temperature, the plates were gently rinsed 5 times with distilled water to remove excess dye and dried at room temperature for 10 minutes (Djordjevic, Wiedmann & McLandsborough 2002). The dry plates were filled with 200 μl ethanol, covered and gently agitated (Duomax 1030 rocking platform shaker, Heidolph, Kelheim, Germany) for 1 hour. The absorbance of extracted color was measured in a plate reading spectrophotometer (Infinite M200, Tecan, Mannedorf, Switzerland) at 595 nm.
The effect of linking the arm to a peptide, on the antimicrobial activity of the peptides was assessed by measuring the peptide activity in 96-microtitter plates in solution and comparing to activities of the normal peptides. Experiments were performed in water and in 3% NaCl solution. Table 6 presents the antimicrobial activity (IC50) of peptide-arm systems, in water and in 3% NaCl solution. Values were extracted from dose-response curves.
Different concentration solutions of peptides, bought or prepared as detailed in the methods section above, were prepared by diluting a stock solution with 1% ACN. Stock solution was prepared by dissolving water soluble peptides in DDW:PBS1:1. PBS (pH=7.4) was prepared by adding to 800 ml DDW, 8 grams NaCl, 0.2 grams KCl, 1.44 grams Na2HPO4 and 0.2 grams KH2PO4.
To evaluate whether attachment of a tether to the AMPs has an effect on the inhibitory potency, a PEGylated peptide (HS-PEG-D-Modelin-1) was prepared, and its inhibitory potency compared to that of the ‘normal’ peptide All-D-Modelin-1. Peptides were diluted in 2-fold serial dilutions, and the antibacterial activity of the peptides was determined in sterile 96-multititter plates.

pronase E = type: in vitro ADME
Experimental: (§1) Proteolytic Stability Assay of Peptides:
Stock solution (0.56 mg/ml) of each peptide was prepared by dissolving the peptide in PBS (pH=7.4). To each 90 μl of peptide solution 10 μl of enzyme solution, containing either a mixture of 0.5 μg trypsin (0.05 mg/ml) and 0.5 μg chymotrypsin (0.05 mg/ml) or 4 μg pronase E (0.4 mg/ml) in 0.001M HCl, was added. The enzymatic degradation of the peptide was monitored at controlled temperature of 25° C. by RP-HPLC with detection at 220 nm using Phenomenex C18 4.6×250 mm column with 5 μm particle size and 110 Å pore size. Elution gradient was: t=0 minutes, B=15%; t=5 minutes, B=15%; t=40 minutes, B=70%; t=42 minutes, B=95%; t=52 minutes, B=95% (flow rate 1 ml/minute).
(§2) Enzymes concentrations were determined by preliminary experiment that was performed to screen for concentrations allowing complete degradation of C-Modelin-1 within 1-2 hours. 10 μl of enzyme solution with varying concentrations were added to 90 μl of peptide solution (0.56 mg/ml) and enzymatic degradation of the peptide was monitored by RP-HPLC.
The enzymatic degradation was monitored at a fixed temperature of 25° C. by RP-HPLC at 220 nm, as described before. Elution gradient started with 85% A/15% B for 5 minutes continued with 30% A/70% B for 35 minutes and ended with 5% A-95% B for 12 minutes.
All the enzymes were used in concentrations allowing complete degradation of C-Modelin-1 within […].

biofilm = assay: Confocal microscope analysis of biofilm developed on modified RO membranes; type: cell-based; conditions: biofilm on RO membrane modified with the peptide
Experimental: b) Quantitative Measurements:
For biofilm growth measurements, modified membranes were tested in static conditions and in a flow-through system.
For static conditions membranes were glued with RTV 186 glue to a 1 cm×1 cm glass slides and were incubated in 24-wells plate, containing Green fluorescent protein (GFP) expressing Pseudomonas aeruginosa culture, for 18 hours (37° C.). Then, the membranes were washed with DDW to remove planktonic bacteria and the formed biofilm was detected by Leica DM 2500 confocal laser scanning microscope (CLSM, Wetzlar, Germany).
For the flow-through system, 1 cm×1 cm membranes were glued to a 2.6 cm×7.6 cm glass slide and the slide was placed in a flow cell. First, GFP expressing Pseudomonas aeruginosa was introduced to the cell and incubated for 1 hour. Then, the planktonic bacteria were washed out and sterile growth media was brought in to the cell with 50 ml/h flow rate. After 24 hours the sample was removed from the cell and biofilm fluorescence was detected by confocal laser scanning microscope. The dyed membranes were analyzed by a confocal laser scanning microscope.
Quantitative and qualitative indications for biofilm formation on modified vs. non modified RO membranes were checked.
The results of the confocal microscope analysis of the biofilm that developed on the different membranes showing reduced biofilm formation on the modified membranes are summarized in Table 15.

[1] = system: proteolytic enzymes (trypsin, chymotrypsin, pronase E); type: in vitro ADME
Experimental: Resistance to proteolysis can be determined according to trypsin, chymotrypsin or pronase E assay, as detailed below in the Methods section, namely by adding to each 90 μl of peptide solution, 10 μl of enzyme solution, containing either a mixture of 0.5 μg trypsin (0.05 mg/ml) and 0.5 μg chymotrypsin (0.05 mg/ml) or 4 μg pronase E (0.4 mg/ml) in 0.001M HCl. The enzymatic degradation of the peptide is monitored at controlled temperature of 25° C. A peptide can be considered to be resistant to proteolysis if it withstands this assay for at least 1 week, maintaining at least 90% of its initial concentration after this period.
as §1
Stock solution (0.56 mg/ml) of each peptide was prepared by dissolving the peptide in PBS (pH=7.4). […] The enzymatic degradation of the peptide was monitored at controlled temperature of 25° C. by RP-HPLC with detection at 220 nm using Phenomenex C18 4.6×250 mm column with 5 μm particle size and 110 Å pore size. […]
as §2, with “RP-HPLC. […]” for “RP-HPLC.”

Compound: N=C(N)NCCC[C@H](NC(=O)CNC(=O)CNC(=O)CNC(=O)[C@@H](N)CS)C(=O)N[C@@H](CCCNC(=N)N)C(=O)N[C@@H](Cc1c[nH]c2ccccc12)C(=O)N[C@@H](Cc1c[nH]c2ccccc12)C(=O)N[C@@H](CCCNC(=N)N)C(=O)N[C@@H](Cc1ccccc1)C(N)=O [CG3-Hexapeptide-4, CGGGRRWWRF-NH2] (H-CGGGRRWWRF-NH2; N-terminus assumed)
IC50 Normal conditions (Enterobacter): 160 µg/mL (≈ 125 µM) | IC50 in 3% Aqueous NaCl (Enterobacter): 150 µg/mL (≈ 117 µM) | Biovolume (biofilm): 8.9 * 10^4 μm^3 | Thickness (biofilm): 9.5 μm

Compound: CC(C)C[C@H](NC(=O)[C@H](CCCCN)NC(=O)CNC(=O)CNC(=O)CNC(=O)CNC(=O)[C@@H](N)CS)C(=O)N[C@@H](Cc1c[nH]c2ccccc12)C(=O)N[C@@H](CCCCN)C(=O)N[C@@H](CCCCN)C(=O)N[C@@H](Cc1c[nH]c2ccccc12)C(=O)N[C@@H](C)C(=O)N[C@@H](CCCCN)C(=O)N[C@@H](CCCCN)C(=O)N[C@@H](Cc1c[nH]c2ccccc12)C(=O)N[C@@H](CC(C)C)C(=O)N[C@@H](CCCCN)C(=O)N[C@@H](CC(C)C)C(=O)N[C@@H](Cc1c[nH]c2ccccc12)C(=O)N[C@@H](CCCCN)C(=O)N[C@@H](C)C(=O)N[C@@H](Cc1c[nH]c2ccccc12)C(=O)O [CG4-Modelin-1] (H-CGGGGKLWKKWAKKWLKLWKAW-OH; N-terminus assumed)
IC50 Normal conditions (Enterobacter): 100 µg/mL (≈ 37.6 µM) | Biovolume (biofilm): 9.3 * 10^4 μm^3 | Thickness (biofilm): 9.5 μm

Compound: CC(C)C[C@@H](NC(=O)[C@H](N)CCCCN)C(=O)N[C@H](Cc1c[nH]c2ccccc12)C(=O)N[C@H](CCCCN)C(=O)N[C@H](CCCCN)C(=O)N[C@H](Cc1c[nH]c2ccccc12)C(=O)N[C@H](C)C(=O)N[C@H](CCCCN)C(=O)N[C@H](CCCCN)C(=O)N[C@H](Cc1c[nH]c2ccccc12)C(=O)N[C@H](CC(C)C)C(=O)N[C@H](CCCCN)C(=O)N[C@H](CC(C)C)C(=O)N[C@H](Cc1c[nH]c2ccccc12)C(=O)N[C@H](CCCCN)C(=O)N[C@H](C)C(=O)N[C@H](Cc1c[nH]c2ccccc12)C(=O)O [D-Modelin-1, KLWKKWAKKWLKLWKAW]
IC50 (Enterobacter; repeated assay, D-Modelin-1 (crude) and HS-PEG-D-Modelin-1 prepared in the same synthesis): 3 µg/mL (≈ 1.29 µM)

Continued, in another order:

IC50 (Enterobacter): 4 µg/mL (≈ 1.6 µM) | digestion first detected after (pronase E): 5 min | peptides completely degraded after (pronase E): 135 min
Compound: CC(C)C[C@H](NC(=O)[C@H](CCCCN)NC(=O)[C@H](CC(C)C)NC(=O)[C@H](Cc1c[nH]c2ccccc12)NC(=O)[C@H](CCCCN)NC(=O)[C@H](CCCCN)NC(=O)[C@H](C)NC(=O)[C@H](Cc1c[nH]c2ccccc12)NC(=O)[C@H](CCCCN)NC(=O)[C@H](CCCCN)NC(=O)[C@H](Cc1c[nH]c2ccccc12)NC(=O)[C@H](CC(C)C)NC(=O)[C@H](CCCCN)NC(=O)[C@@H](N)CS)C(=O)N[C@@H](Cc1c[nH]c2ccccc12)C(=O)N[C@@H](CCCCN)C(=O)N[C@@H](C)C(=O)N[C@@H](Cc1c[nH]c2ccccc12)C(=O)NCCC(=O)O [C-Modelin-1-βAla, CKLWKKWAKKWLKLWKAW-βAla] (H-CKLWKKWAKKWLKLWKAW[βAla]-OH)

IC50 in 3% Aqueous NaCl (Enterobacter): >300 µg/mL
Compound: CC(C)C[C@H](NC(=O)[C@H](CCCCN)NC(=O)[C@H](Cc1ccccc1)NC(=O)[C@H](CC(C)C)NC(=O)[C@H](CC(C)C)NC(=O)CNC(=O)[C@H](CCCCN)NC(=O)[C@H](CC(C)C)NC(=O)[C@H](CCCCN)NC(=O)[C@@H]1CCCN1C(=O)[C@H](CC(C)C)NC(=O)[C@H](CC(C)C)NC(=O)[C@H](CC(C)C)NC(=O)[C@H](CCCCN)NC(=O)[C@H](CC(C)C)NC(=O)[C@H](CC(C)C)NC(=O)[C@H](CCCCN)NC(=O)[C@H](Cc1ccc(O)cc1)NC(=O)CNC(=O)CNC(=O)CNC(=O)CNC(=O)[C@@H](N)CS)C(N)=O [CG4-L^6P^9G^13F^16] (H-CGGGGYKLLKLLLPKLKGLLFKL-NH2; N-terminus assumed)
IC50 Normal conditions (Enterobacter): 110 µg/mL (≈ 44.5 µM)

IC50 in 3% Aqueous NaCl (Enterobacter): 100 µg/mL (≈ 99.5 µM)
Compound: N=C(N)NCCC[C@H](NC(=O)[C@H](Cc1c[nH]c2ccccc12)NC(=O)[C@H](Cc1c[nH]c2ccccc12)NC(=O)[C@H](CCCNC(=N)N)NC(=O)[C@@H](N)CCCNC(=N)N)C(=O)N[C@@H](Cc1ccccc1)C(N)=O [Hexapeptide-4, RRWWRF-NH2, reference compound] (H-RRWWRF-NH2; N-terminus assumed)
IC50 Normal conditions (Enterobacter): 60 µg/mL (≈ 59.7 µM)

IC50 (Enterobacter): 10 µg/mL (≈ 4.11 µM) | higher stability compared with the unprotected Cys-Modelin-1 [1]: over 100 fold | remained stable when treated with the proteolytic enzymes [1]: over 2 weeks
Compound: CC(C)C[C@@H](NC(=O)[C@@H](CCCCN)NC(=O)[C@H](N)CS)C(=O)N[C@H](Cc1c[nH]c2ccccc12)C(=O)N[C@H](CCCCN)C(=O)N[C@H](CCCCN)C(=O)N[C@H](Cc1c[nH]c2ccccc12)C(=O)N[C@H](C)C(=O)N[C@H](CCCCN)C(=O)N[C@H](CCCCN)C(=O)N[C@H](Cc1c[nH]c2ccccc12)C(=O)N[C@H](CC(C)C)C(=O)N[C@H](CCCCN)C(=O)N[C@H](CC(C)C)C(=O)N[C@H](Cc1c[nH]c2ccccc12)C(=O)N[C@H](CCCCN)C(=O)N[C@H](C)C(=O)N[C@H](Cc1c[nH]c2ccccc12)C(=O)O [All-D C-Modelin-1, CKLWKKWAKKWLKLWKAW] (H-[dC][dK][dL][dW][dK][dK][dW][dA][dK][dK][dW][dL][dK][dL][dW][dK][dA][dW]-OH)

IC50 in 3% Aqueous NaCl (Enterobacter): >300 µg/mL
Compound: N=C(N)NCCC[C@H](NC(=O)CCCCCNC(=O)[C@@H](N)CS)C(=O)N[C@@H](CCCNC(=N)N)C(=O)N[C@@H](Cc1c[nH]c2ccccc12)C(=O)N[C@@H](Cc1c[nH]c2ccccc12)C(=O)N[C@@H](CCCNC(=N)N)C(=O)N[C@@H](Cc1ccccc1)C(N)=O [CX-Hexapeptide-4, CXRRWWRF-NH2] (H-C[Ahx]RRWWRF-NH2; N-terminus assumed)
IC50 Normal conditions (Enterobacter): 80 µg/mL (≈ 65.5 µM)
